These are literature values, as cited in patent publication US20250161538A1, “POLYMER-BASED MATERIAL WITH ANTI-BACTERIAL PROPERTIES WITH IMPROVED MECHANICAL STRENGTH FOR DENTAL APPLICATIONS” (priority 2022, published 2025).

The structures appear in SMILES notation.

This data set relates to adult rat pulp tissue. To be noted: in vivo, po.

For the compound `[Ag+]` [Ag ions, silver], the cytotoxic effect entry was “induce cytotoxic effect”.
